Data: patent US20210251963A1, “UREA DERIVATIVES FOR USE IN THE TREATMENT OF SUBJECTS WITH ELEVATED EXPRESSION AND/OR ACTIVITY OF SRPK1” (Scandion Oncology A/S, priority 2018, published 2021)

Legend:
[1] = test system: HT29 parental colon cancer cells; test: Cell viability (MTT assay); assay type: cell-based; settings: SN38 Log Concentration (μM) -1, 72 hours
Procedure: (§1) SN38 was applied to a SN38 sensitive colon cancer cell line (“HT29 parental”) and to a SN38 resistant colon cancer cell line (“HT29 SN38 resistant”).
(§2) The Log Concentration (μM) used are—1 for SN38. Data represents cell viability data (MTT assay) and cells were incubated with drugs for 72 hours.

[2] = test system: HT29 SN38 resistant colon cancer cells; test: Cell viability (MTT assay); assay type: cell-based; settings: for cell viability, % of untreated control cells: HT29 SN38 resistant
Procedure: as §1, §2
The Log Concentrations (μM) used are—1 for SN38, and 1.5 for both Srpkin340 and Sphinx 31. Data represents cell viability data (MTT assay) and cells were incubated with drugs for 72 hours.

| Structure (SMILES) | cell viability, % of untreated control cells [1] | cell viability, % of untreated control cells ([2]; SN38 0.1 μM alone, 72 hours, Example 4) | cell viability, % of untreated control cells ([2]; SN38 Log Concentration (μM) -1, 72 hours, Example 3) | restoration of SN38 sensitivity in SN38 resistant HT29 colon cancer cells ([2]; Log Concentration (μM) 1.5 of inhibitor with SN38 -1, 72 hours) |
| --- | --- | --- | --- | --- |
| CCc1c2c(nc3ccc(O)cc13)-c1cc3c(c(=O)n1C2)COC(=O)[C@]3(O)CC [SN38, reference compound] | 27% | 75% | 73% |  |
| O=C(Nc1cc(C(F)(F)F)ccc1N1CCN(Cc2ccccn2)CC1)c1ccc(-c2ccncc2)o1 [Sphinx31, reference compound] |  |  |  | can restore the SN38 sensitivity |
